Measured values from patent publication US4151300A, “Acetohydroxamic acids” (Laboratoire L. Lafon, priority 1976, dated 1979).
≈ marks a conversion by molar mass, not a printed value. Entries after “also recorded” stand apart in the source; their conditions may differ.

What was measured:
mice [1] = assay: interaction with apomorphine in mice; type: in vivo
mice [2] = assay: interaction with oxotremorine (temperature, trembling, peripheral cholinergic symptoms); type: in vivo; details: mice, i.p.
rats [3] = assay: interaction with apomorphine (stereotype behaviour in rats); type: in vivo; details: rats, i.p.
How it was run: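 Rats in groups of six received the test compound intraperitoneally as a gum arabic suspension at 5 ml/kg. Thirty minutes later they were given apomorphine 0.5 mg/kg subcutaneously, and stereotyped behaviour was scored.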

mice [4] = assay: motility reduced by hypoxia treatment (motor recovery); type: in vivo; details: mice, i.p.
central nervous system = assay: psychopharmacological study / behaviour; type: in vivo, mice; details: for sedation / sedative effect: high dose(s)
mice [5] = assay: interaction with reserpine (hypothermia, ptosis); type: in vivo; details: i.p.
mice [6] = assay: spontaneous motility (actimeter); type: in vivo; details: mice
How it was run: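 Compounds given i.p. as a gum arabic suspension at 20 ml/kg. Thirty minutes after dosing, mice (6 per dose, 12 controls) went into an actimeter and motility was recorded for half an hour.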

mice [7] = assay: inter-group aggressiveness (number of fights); type: in vivo
How it was run: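 Mice were housed either three weeks (CRL 40,373) or 18 days (CRL 40,385, groups of 3) on each side of an opaque cage partition. Fights were counted over 15 min.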

rats [8] = assay: interaction with amphetamine (stereotypies in rats); type: in vivo; details: rats, i.p.
How it was run: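 Test products given intraperitoneally as a gum arabic suspension (5 ml/kg in rats). Thirty minutes later, amphetamine 2 mg/kg is injected intraperitoneally; 6 animals per dose.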

mice [9] = assay: toxicity (isolated mice, intraperitoneal); type: in vivo
Description: (§1) The following text summarises a part of the results of the tests which were carried out with the products according to the invention, these products (unless otherwise stated) being administered intraperitoneally, in suspension in a gum solution (gum arabic), in a volume of 20 ml/kg in the case of mice and of 5 ml/kg in the case of rats.

mice [10] = assay: motility reduced by habituation to a cage (residual motility); type: in vivo; details: i.p.
How it was run: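 Mice habituated 18 hours in actimeters received compound intraperitoneally as a gum arabic suspension (20 ml/kg) and were returned to their cages. Motility was recorded for 30 minutes starting half an hour after dosing, with 6 animals per dose and 12 controls.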

rats [11] = assay: behaviour in rats; type: in vivo
Description: as §1

mice [12] = assay: electrical shock (convulsing effects); type: in vivo, mice (EVIC CEBA strain); details: i.p.
Description: as §1
(§2) The test is carried out on batches of 10 sensitive mice (EVIC CEBA strain), 30 minutes after the administration of CRL 40,373.
(§3) Batches of 10 mice are subjected to the test thirty minutes after having received CRL 40,385.

mice [13] = assay: traction (motor incoordination); type: in vivo, mice (EVIC CEBA strain)
mice [14] = assay: four-plate test; type: in vivo, mice (EVIC CEBA strain); details: i.p.
Description: as §1, §2, §3

man = assay: clinical use in man; type: in vivo; details: pill 20 mg, 3 to 4 pills per day
[15] = solubility in distilled water; type: physicochemical; details: read-out: solubility limit

O=C(CNc1ccc(Cl)c(Cl)c1)NO [CRL 40,500, (3,4-Dichloroanilino)-acetohydroxamic acid]
apomorphine-induced stereotypies (mice [1]): does not alter the stereotypies induced by apomorphine
temperature (oxotremorine-induced hypothermia) (mice [2]): aggravation of the hypothermia due to reserpine and to oxotremorine
peripheral effects of oxotremorine (mice [2]; 128 and 32 mg/kg): increases the peripheral effects of oxotremorine
apomorphine-induced stereotypies (rats [3]): does not alter the stereotypies induced by apomorphine
motor recovery after hypoxia/anoxia by pressure reduction (mice [4]): does not cause a marked improvement in the motor recovery of mice
sedation / sedative effect (central nervous system): moderate sedation at high doses
reserpine-induced hypothermia (mice [5]): aggravation of the hypothermia due to reserpine
spontaneous motility (mice [6]; i.p., 32 and 128 mg/kg): moderately reduces the spontaneous motility of mice
aggressiveness (mice [7]; low dose): reduction of aggressiveness which is substantial at low doses
inter-group aggressiveness (mice [7]; mice, i.p., all the doses studied): reduces the inter-group aggressiveness of mice
inter-group aggressiveness (mice [7]; mice, i.p., high doses (64 and 128 mg/kg)): a reduction of the effect is observed
inter-group aggressiveness (mice [7]; mice, i.p., lowest dose used (8 mg/kg)): present with considerable intensity
amphetamine-induced stereotypies (rats [8]): does not alter the stereotypies induced by apomorphine (rats and mice) and by amphetamine (rats)
mortality (mice [9]; i.p., 256 mg/kg): the mice survive
average time to death (mice [9]; i.p., 512 mg/kg): 18 h
relative toxicity (mice [9]; mouse, in vivo, ip): more toxic than the products studied above
symptoms / behaviour (mice [9]; mouse, in vivo, ip, 256 mg/kg): the symptoms are identical
motility reduced by habituation to the cage (mice [10]; 128 mg/kg): moderate resumption of the motor activity of mice habituated to their cage

CC(C(=O)NO)[S+]([O-])Cc1ccc(Cl)cc1 (stereo not shown) [CRL 40,466, 2-(p-Chlorobenzylsulphinyl)-propionohydroxamic acid]
excitation (rats [11]): excitation, with hyper-reactivity
convulsing effects of the electric shock (mice [12]; mice): antagonism to convulsions caused by electric shock
oxotremorine-induced trembling (mice [2]): reduces the trembling movements due to oxotremorine
temperature (oxotremorine-induced hypothermia) (mice [2]): does not oppose hypothermia induced by oxotremorine
temperature (oxotremorine-induced hypothermia) (mice [2]; high doses): aggravates the hypothermia
motor incapacity (mice [13]; high dose): motor incapacity
apomorphine-induced stereotypies (rats [3]): does not markedly alter the stereotypies induced in rats by apomorphine
motor recovery after hypoxia/anoxia by pressure reduction (mice [4]): moderate increase in the motility reduced by habituation or by the effects of hypoxia
reactivity (central nervous system; mice, high dose): hypo-reactivity
excitation (central nervous system; mice, low dose): excitation, with hyper-reactivity
body temperature effect (product alone) (central nervous system; mouse, in vivo): hypothermia
psychopharmacological profile / conclusion (central nervous system; mouse, in vivo): effects of the sedative type and effects of the psychostimulant type; also recorded: sedation in mice
ptosis (product alone) (central nervous system; mouse, in vivo): ptosis
number of incorrect moves (four-plate test) (mice [14]; mice): moderate (but significant) increase in the number of incorrect moves
spontaneous motility (mice [6]; high dose): reduction in spontaneous motility
spontaneous motility (mice [6]; i.p., 8 mg/kg): appears to exhibit a stimulant effect on the motility
spontaneous motility (mice [6]; i.p., 512 mg/kg): depresses spontaneous motility in mice
aggressiveness (mice [7]; low dose): increase in aggressiveness
aggressiveness (mice [7]; mice, i.p., large/high dose): reduction of aggressiveness
amphetamine-induced stereotypies (rats [8]): does not markedly alter the stereotypies induced in rats by apomorphine and amphetamine
mortality (mice [9]; mice, i.p., 256, 512 and 1,024 mg/kg): does not cause any mortality whatsoever
motility reduced by habituation to the cage (mice [10]): moderate increase in the motility reduced by habituation

O=C(CC(=O)Nc1c(Cl)cccc1Cl)NO [CRL 40,510, 2,6-Dichlorophenyl-carbamoyl-acetohydroxamic acid]
anti-convulsive effect (mice [12]; also gastric administration): of the anti-convulsive type
clinical result (man): good results in man as an anxiolytic sedative agent
oxotremorine-induced trembling (mice [2]): moderately antagonistic to the trembling movements caused by oxotremorine
motor incoordination / incapacity (mice [13]; i.p.): absence of motor incapacity
sedation / sedative effect (central nervous system): moderate sedative effect
psychopharmacological profile / conclusion (central nervous system; mouse, in vivo): comes close to the benzodiazepines in respect of anxiolytic and anti-convulsive activities; also recorded: relative resistance to sedation
anxiolytic effect (four plate test) (mice [14]; also gastric administration): effects of the anxiolytic type
solubility [15]: ~13 mg/mL (≈ 49.4 mM)
LD-O (maximum non-lethal dose) (mice [9]; mice, i.p.): greater than 1,024 mg/kg
